# Laboratory results: US12691110B2 (Massachusetts Eye and Ear Infirmary, priority 2022, dated 2026)
# Legend:
# C-PVR cells = test: CyQuant cell proliferation assay in human patient derived primary cultures of PVR; format: cell-based
# Description: Twelve candidate drugs were tested at 2 concentrations at 72 hours for their effects on proliferation and cytotoxicity in C-PVR cells. […] Each anti-proliferative drug was tested at 2 concentrations determined by using the IC50 of each drug. The data was expressed as percent cell inhibition.
# The cells were washed and the CyQuant Direct nucleic acid stain was added and incubated at 37 degrees in the incubator. Fluorescence read outs were measured at wavelengths as instructed in the protocol.
# human PVR explants = test: Ex vivo human PVR explant outgrowth and sprouting model; format: cell-based; settings: for total branch length of outgrowths: vehicle 167 mm; for sprouting distance from the explant (in words): 3-10 days
# [1] = Homo sapiens, 72 hours, C-PVR cells
# [2] = Homo sapiens, 5 μM, 72 hours, C-PVR cells
smiles,measurement,setting,value
COc1cccc2c1C(=O)c1c(O)c3c(c(O)c1C2=O)C[C@@](O)(C(C)=O)C[C@@H]3O[C@H]1C[C@H](N)[C@H](O)[C@H](C)O1 [Daunorubicin],reduction in proliferation,"C-PVR cells; 15 nM, 72 hours, C-PVR cells",50%
same,reduction in proliferation,"C-PVR cells; 30 nM, 72 hours, C-PVR cells",53%
"O=C1CN=C(c2ccc[nH]2)c2cc(Cl)ccc2N1 [RUNX1 inhibitor, Ro5-3335]",inhibition of growth of C-PVR cells (in words),"C-PVR cells; 150 μM alone, 48 and 72 hours",efficacious at inhibiting growth of C-PVR cells
"CC[C@@]1(O)C(=O)OCc2c1cc1n(c2=O)Cc2cc3c(CN(C)C)c(O)ccc3nc2-1 [Topotecan, topotecan]",decrease in proliferation,"C-PVR cells; 40 nM, 72 hours, C-PVR cells",54%
same,decrease in proliferation,"C-PVR cells; 80 nM, 72 hours, C-PVR cells",53%
same,inhibition of proliferation of C-PVR cells (in words),"C-PVR cells; concentrations of 40 nM and 80 nM, FIG. 1B",effectively inhibited the proliferation of C-PVR cells
same,total branch length of outgrowths,human PVR explants; 40 nM (so in the source),34 mm
same,sprouting distance from the explant (in words),human PVR explants; 80 nM alone,statistically significant reduction in sprouting distance
Cn1c(CCCC(=O)O)nc2cc(N(CCCl)CCCl)ccc21 [bendamustine],inhibition at 1 µM,C-PVR cells; [1],25%
same,inhibition at 5 µM,C-PVR cells; [2],20%
COC(=O)N[C@H](C(=O)N1CCC[C@H]1c1ncc(-c2ccc(-c3ccc(-c4cnc([C@@H]5CCCN5C(=O)[C@@H](NC(=O)OC)C(C)C)[nH]4)cc3)cc2)[nH]1)C(C)C [daclatsvir],inhibition of cell proliferation,"C-PVR cells; 5 μM, 72 hours, C-PVR cells",16%
Nc1cccc2c1CN(C1CCC(=O)NC1=O)C2=O (stereo not shown) [lenalidomide],inhibition of proliferation,"C-PVR cells; concentration not given, 72 hours, C-PVR cells",24%
CN1CCN(c2c(F)cc3c(=O)c(C(=O)O)cn4c3c2OCN4C)CC1 [marbofloxacin],inhibition at 5 µM,C-PVR cells; [2],30%
"N[C@@H](Cc1ccc(N(CCCl)CCCl)cc1)C(=O)O [melphalan, 4-[bis(2-chloroethyl)amino]-L-phenylalanine]",reduction of cell proliferation,"C-PVR cells; 60 μM, 72 hours, C-PVR cells",83%
same,inhibition at 30 µM,"C-PVR cells; Homo sapiens, 30 μM, 72 hours, C-PVR cells",74%
same,inhibition of proliferation of C-PVR cells (in words),"C-PVR cells; concentrations of 30 nM and 60 nM (so in the source), FIG. 1A",effectively inhibited the proliferation of C-PVR cells
same,sprouting distance from the explant (in words),human PVR explants; 30 μM alone,statistically significant reduction in sprouting distance
same,total branch length of outgrowths,human PVR explants; 30 μM,27.5 mm
Oc1ccc(C=Cc2cc(O)cc(O)c2)cc1 [resveratrol],inhibition at 5 µM,C-PVR cells; [2],28%
CC(C)[C@H](O)C(=O)N[C@@H](C)C(=O)N[C@@H]1C(=O)N(C)CCc2ccccc21 [semagacestat],inhibition at 1 µM,C-PVR cells; [1],28%
same,inhibition at 5 µM,C-PVR cells; [2],30%
Cc1cn([C@H]2C=C[C@@H](CO)O2)c(=O)[nH]c1=O [stavudine],inhibition at 5 µM,C-PVR cells; [2],19%
